Experimental data from PMC4792582, “Effect of ceritinib (LDK378) on enhancement of chemotherapeutic agents in ABCB1 and ABCG2 overexpressing cells in vitro and in vivo” (Oncotarget, 2015).

Tests used:
[1] = biological target: T1, ABCG2 (BCRP/MXR) (Homo sapiens, UniProt Q9UNQ0); assay: reversal of mitoxantrone resistance in ABCG2-transfected versus mock HEK293 cells (MTT), […]; type: cell-based; set-up: HEK293/ABCG2-R2 stably transfected cells
T1 sequence (Q9UNQ0 1-655): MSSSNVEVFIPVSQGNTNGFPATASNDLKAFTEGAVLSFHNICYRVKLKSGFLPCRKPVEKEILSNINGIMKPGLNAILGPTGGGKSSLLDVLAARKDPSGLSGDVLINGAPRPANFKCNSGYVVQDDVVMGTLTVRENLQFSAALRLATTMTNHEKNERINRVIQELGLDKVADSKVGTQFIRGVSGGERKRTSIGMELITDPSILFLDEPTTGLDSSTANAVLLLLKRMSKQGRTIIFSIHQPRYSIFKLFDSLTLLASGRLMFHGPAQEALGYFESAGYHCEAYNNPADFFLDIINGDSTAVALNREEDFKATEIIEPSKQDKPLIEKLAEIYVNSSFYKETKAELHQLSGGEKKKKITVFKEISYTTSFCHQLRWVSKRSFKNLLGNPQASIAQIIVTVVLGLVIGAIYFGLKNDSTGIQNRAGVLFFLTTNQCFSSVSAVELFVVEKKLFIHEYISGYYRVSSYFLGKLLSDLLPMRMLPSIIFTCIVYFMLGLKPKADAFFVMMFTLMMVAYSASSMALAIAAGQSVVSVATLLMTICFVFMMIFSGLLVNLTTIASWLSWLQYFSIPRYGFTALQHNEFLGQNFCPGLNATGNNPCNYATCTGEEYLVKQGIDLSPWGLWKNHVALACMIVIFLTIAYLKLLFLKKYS

[2] = biological target: T1, ABCG2 (BCRP/MXR); assay: competition of […]-IAAP photoaffinity labeling in membranes; also effect on vanadate-sensitive ATPase activity; type: binding; set-up: Crude membranes from High Five insect cells expressing ABCG2

Structure (SMILES)	(fold-reversal) / HEK293/ABCB1 [1]	competition of [125I]-IAAP photoaffinity labeling in membranes; also effect on v [2]
COc1ccc2c3c([nH]c2c1)[C@H](C=C(C)C)N1C(=O)[C@@H]2CCCN2C(=O)[C@@H]1C3 [Fumitremorgin C]	26.81 fold-reversal	–
Cc1cc(Nc2ncc(Cl)c(Nc3ccccc3S(=O)(=O)C(C)C)n2)c(OC(C)C)cc1C1CCNCC1 [Ceritinib, 5-chloro-N2-(2-isopropoxy-5-methyl-4-(piperidin-4-yl)phenyl)-N4-(2-(isopropylsulfonyl)phenyl)pyrimidine-2,4-diamine]	–	ceritinib binds with high affinity to both the ABCB1 and ABCG2 substrate-binding sites
